Test results published in ChEMBL document CHEMBL4033763, “Synthesis and Anti-HCV Activity of a Novel 2',3'-Dideoxy-2'-α-fluoro-2'-β-C-methyl Guanosine Phosphoramidate Prodrug” (ACS Med Chem Lett, 2017).

How the values were obtained:
Hepatitis C virus [1] = assay: Antiviral activity against HCV 1b replicon infected in human HuH7 cells expressing HIV LTR promoter driven luciferase reporter gene assessed as reduction in viral RNA replication incubated for 48 hrs by lucifrease reporter gene assay; type: functional, cell-based, Hepacivirus hominis; conditions: genotype 1b, Huh-7, 48 h
[2] = Cytotoxicity against human HuH7 cells expressing HIV LTR promoter driven luciferase reporter gene in presence of 10% fetal bovine serum by lucifrease reporter gene assay; type: cell-based, Huh-7
Hepatitis C virus [3] = assay: Antiviral activity against HCV 1a replicon infected in human HuH7 cells expressing HIV LTR promoter driven luciferase reporter gene assessed as reduction in viral RNA replication incubated for 48 hrs by lucifrease reporter gene assay; type: functional, cell-based, Hepacivirus hominis; conditions: subtype 1a, Huh-7, 48 h
Hepatitis C virus [4] = assay: Antiviral activity against NS5B S282T mutant expressing HCV 1b replicon infected in human HuH7 cells expressing HIV LTR promoter driven luciferase reporter gene assessed as reduction in viral RNA replication incubated for 48 hrs by lucifrease reporter gene assay; type: functional, cell-based, Hepacivirus hominis; conditions: genotype 1b, Huh-7, 48 h
Hepatitis C virus [5] = assay: Antiviral activity against HCV 2a replicon infected in human HuH7 cells expressing HIV LTR promoter driven luciferase reporter gene assessed as reduction in viral RNA replication incubated for 48 hrs by lucifrease reporter gene assay; type: functional, cell-based, Hepacivirus hominis; conditions: genotype 2a, Huh-7, 48 h

With COc1nc(N)nc2c1ncn2[C@@H]1O[C@H](CO[P@@](=O)(N[C@@H](C)C(=O)OC2CCCC2)Oc2ccccc2)C[C@@]1(C)F the EC50 (Hepatitis C virus [1]) was 580 nM, the CC50 [2] was over 100000 nM and the EC50 (Hepatitis C virus [3]) was 1100 nM. The EC50 (Hepatitis C virus [4]) was 810 nM and the EC50 (Hepatitis C virus [5]) was 390 nM.

With COc1nc(N)nc2c1ncn2[C@@H]1O[C@H](CO)C[C@@]1(C)F the EC50 (Hepatitis C virus [1]) was over 100000 nM and the CC50 [2] was over 100000 nM.
